Entries after “also recorded” stand apart in the source; their conditions may differ. Structures can show the parent of a compound that is named as a salt. Where two headings read alike, the source gives them in different places. Where a SMILES comes first, the peptide text is derived from it. Bridges are numbered along the chain shown (N, C = ends). [ ]: non-standard residue; d: D form. Orn = NCCC[C@H](N)C(=O)O; Mpa = O=C(O)CCS
Experiments:
[1] = Moisture sorption/desorption and relative humidity stability of compound I salts; type: physicochemical; settings: for Hygroscopicity: moisture balance data, hydrochloride
Method: Moisture sorption/desorption (MB) data were collected on a VTI SGA-100 Vapor Sorption Analyzer. Sorption and desorption data were collected over a range of 5% to 95% relative humidity (RH) at 10% RH intervals under a nitrogen purge. Samples were not dried prior to analysis. Equilibrium criteria used for analysis were less than 0.0100% weight change in 5 minutes, with a maximum equilibration time of 3 hours if the weight criterion was not met. Data were not corrected for the initial moisture content of the samples. NaCl and PVP were used as calibration standards.

[2] = Aqueous solubility of compound I salts (FIG. 8); type: physicochemical; settings: water
[3] = system: RU486-induced parturition; assay: RU486-induced preterm parturition in CD-1 mice
Method: (§1) Tocolytic effects were assessed by measuring the time from induction to delivery of the first pup for each mouse in the treatment and control cohorts, the time from time from induction to completion of delivery among all mice in each cohort, and viability of offspring among mice in each cohort. The inducers of preterm parturition used in this study were RU486 (also referred to as mifepristone), a steroidal antiprogestin that promotes cervical dilatation and provokes enhanced uterine contractility and sensitivity to prostaglandins, and lipopolysaccharide (LPS), a mediator of inflammation.
(§2) To induce labor at an early gestational age, a single dose of RU486 was administered to each mouse subcutaneously at 2.5 mg/kg (t=0). Mice treated with LPS received a single intraperitoneal injection of LPS at 2 mg/kg (t=0). Atosiban was administered to CD-1 mice by subcutaneous injection at 300 mg/kg at two distinct sites. These injections were performed at 5 hours (t=5) and 29 hours (t=29) following treatment with the inducing agent RU486 or LPS. […] Compound III was administered to CD-1 mice orally at either 10 mg/kg, 30 mg/kg, or 100 mg/kg at 5 hours (t=5), 19 hours (t=19), 29 hours (t=29), and 43 hours (t=43) following treatment with the inducing agent RU486 or LPS. […] The viability of pups delivered in each cohort was assessed by galenic hydrostatic pulmonary docimasy.

LPS-induced parturition = type: in vivo; settings: LPS-treated mice
Method: as §1, §2

[4] = nifedipine 5 mg/kg oral, compound III 10 mg/kg oral, alone or combined

CC(C)[C@H](N)C(=O)OCC[C@H](NC(=O)[C@@H]1SCCN1S(=O)(=O)c1ccc(-c2ccccc2)cc1)c1ccc(F)cc1 [Compound III, (3S)-3-({[(2S)-3-(biphenyl-4-ylsulfonyl)-1,3-thiazolidin-2-yl]carbonyl}-amino)-3-(4-fluorophenyl)propyl L-valinate hydrochloride]
Stability at elevated relative humidity [1]: extended stability at elevated relative humidity
Weight loss upon desorption [1]: approximately 0.7%
Deliquescence at approximately 95% RH ([1]; 2 days, approximately 95% RH): did not deliquesce
Weight gain on sorption ([1]; from 5 to 95% relative humidity): Approximately 0.9%
Hygroscopicity [1]: low hygroscopicity
Hygroscopicity ([1]; listed as chloride salt): non-hygroscopic
Hygroscopicity ([1]; listed as hydrochloride salt): low hygroscopicity; also recorded: non-hygroscopic
solubility [2]: < 1 mg/mL
Effect on time to delivery ([3]; RU486-treated mice): increase in time to delivery compared to vehicle
Time to delivery ([3]; RU486-treated mice, nifedipine 5 mg/kg oral, compound III 100 mg/kg oral, alone or combined): 23.70 ± 0.60 h
Effect on fractional viability of offspring (LPS-induced parturition): dose-dependent increase in the fractional viability of offspring
Fractional viability of offspring (LPS-induced parturition; compound III 100 mg/kg oral): 69.41%±15.76%
Fractional viability of offspring (LPS-induced parturition; [4]): 57.90%±14.89%
Time to delivery (LPS-induced parturition; [4]): 23.98 ± 0.66 h

CC#C[C@]1(O)CC[C@H]2[C@@H]3CCC4=CC(=O)CCC4=C3[C@@H](c3ccc(N(C)C)cc3)C[C@@]21C [RU486, mifepristone]
Mean delivery time following induction ([3]; RU486 2.5 mg/kg s.c. at gestational age 17 days): 21 ± 1.00 h
Mice excluded due to death or sacrifice during the study ([3]; female, CD-1, mouse, in vivo, 2.5 mg/kg): 3%
Pups delivered alive ([3]; inducer alone): 96%

CCOc1ccc(C[C@H]2NC(=O)CCSSC[C@@H](C(=O)N3CCC[C@H]3C(=O)N[C@@H](CCCN)C(=O)NCC(N)=O)NC(=O)[C@H](CC(N)=O)NC(=O)[C@H]([C@@H](C)O)NC(=O)[C@H]([C@@H](C)CC)NC2=O)cc1 [atosiban, reference compound] ([Mpa][dY](Et)ITNCP[Orn]G-NH2; disulfide 1-6)
Effect on time to delivery (LPS-induced parturition): increase in time to delivery
Time to delivery (LPS-induced parturition; atosiban 300 mg/kg s.c., compound III 100 mg/kg oral, alone or combined): 28.41 ± 2.99 h

COC(=O)C1=C(C)NC(C)=C(C(=O)OC)C1c1ccccc1[N+](=O)[O-] [nifedipine, reference compound]
Fractional viability of offspring (LPS-induced parturition; [4]): 90.39%±5.34%

Reference: patent US11524003B2, “Alpha-amino esters of hydroxypropylthiazolidine carboxamide derivative and salt form, crystal polymorph thereof” (ObsEva S.A., priority 2016, dated 2022)
